Holding throughout (assay type): cell-based
The target in one assay is T1, hGIPR (Homo sapiens, UniProt P48546).
T1 construct: expressed in transfected cells
T1 sequence (P48546 22-466): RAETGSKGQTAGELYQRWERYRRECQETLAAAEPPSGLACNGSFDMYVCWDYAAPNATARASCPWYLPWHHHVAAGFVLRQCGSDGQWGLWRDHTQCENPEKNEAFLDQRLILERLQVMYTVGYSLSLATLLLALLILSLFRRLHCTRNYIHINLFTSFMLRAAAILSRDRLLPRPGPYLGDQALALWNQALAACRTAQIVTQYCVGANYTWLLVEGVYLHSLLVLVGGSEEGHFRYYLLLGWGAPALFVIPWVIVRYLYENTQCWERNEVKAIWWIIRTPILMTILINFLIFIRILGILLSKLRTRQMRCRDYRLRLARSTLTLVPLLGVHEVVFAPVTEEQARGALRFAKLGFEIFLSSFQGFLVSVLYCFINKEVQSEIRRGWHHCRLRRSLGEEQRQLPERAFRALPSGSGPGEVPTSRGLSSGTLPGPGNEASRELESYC
The assay is described as follows: Functional cAMP formation (HTRF) in HEK-293 clonal cells expressing hGIPR, 0.1% bovine casein, without or with 1.0% human serum albumin. Particulars: for Emax: 37° C. An outline of the steps:
(§1)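 Readings of the HTRF 665/620 nm ratio, which falls as cAMP rises, were converted to nM cAMP using a standard curve after 30 min peptide exposure at 37° C.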

For the next assay, the target named is hGLP-1R (Homo sapiens, UniProt P43220). Put plainly: Functional cAMP formation (HTRF) in HEK-293 clonal cells expressing hGLP-1R, 0.1% bovine casein, without or with 1.0% human serum albumin. Further details: expressed in transfected cells. The note with it: for EC50: geometric mean. A digest of the protocol: as §1
(cAMP levels reflect the balance of adenylyl cyclase and phosphodiesterase activity.)

In another assay the target is T2, hGCGR (Homo sapiens, UniProt P47871).
T2 construct: expressed in transfected cells
The assay is described as follows: Functional cAMP formation (HTRF) in HEK-293 clonal cells expressing hGCGR, 0.1% bovine casein, without or with 1.0% human serum albumin. The note with it: geometric mean. An outline of the steps: as §1

Read-outs that look alike come from different tables or passages of the source.

T2 sequence (P47871 26-477): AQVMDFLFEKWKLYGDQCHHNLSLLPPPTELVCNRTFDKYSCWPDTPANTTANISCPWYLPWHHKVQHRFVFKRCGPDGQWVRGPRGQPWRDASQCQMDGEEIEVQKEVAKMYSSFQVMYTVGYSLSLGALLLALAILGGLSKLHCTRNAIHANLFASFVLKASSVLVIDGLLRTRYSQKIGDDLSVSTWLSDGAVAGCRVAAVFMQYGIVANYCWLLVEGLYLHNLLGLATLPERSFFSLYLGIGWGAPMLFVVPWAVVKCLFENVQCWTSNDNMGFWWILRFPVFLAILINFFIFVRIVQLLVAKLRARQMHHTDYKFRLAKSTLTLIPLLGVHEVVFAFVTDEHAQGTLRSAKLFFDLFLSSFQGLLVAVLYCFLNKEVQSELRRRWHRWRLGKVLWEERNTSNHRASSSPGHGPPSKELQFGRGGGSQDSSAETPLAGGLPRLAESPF
Chain of hGLP-1R (P43220 24-463): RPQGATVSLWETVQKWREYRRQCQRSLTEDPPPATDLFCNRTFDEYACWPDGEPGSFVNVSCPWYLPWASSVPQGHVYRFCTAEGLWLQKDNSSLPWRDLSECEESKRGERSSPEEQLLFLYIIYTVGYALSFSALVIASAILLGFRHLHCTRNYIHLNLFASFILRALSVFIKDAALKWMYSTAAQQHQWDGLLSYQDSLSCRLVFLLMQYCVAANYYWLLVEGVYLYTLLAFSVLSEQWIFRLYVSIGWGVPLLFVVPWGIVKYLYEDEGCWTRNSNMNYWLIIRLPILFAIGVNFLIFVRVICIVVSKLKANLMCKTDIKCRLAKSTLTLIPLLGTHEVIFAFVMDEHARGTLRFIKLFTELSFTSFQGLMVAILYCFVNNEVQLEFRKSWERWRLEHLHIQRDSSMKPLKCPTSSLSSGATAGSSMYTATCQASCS

As for `CC[C@H](C)[C@H](NC(=O)[C@H](CC(C)C)NC(=O)[C@](C)(Cc1ccccc1)NC(=O)[C@H](CCCCNC(=O)COCCOCCNC(=O)COCCOCCNC(=O)CC[C@H](NC(=O)CCCCCCCCCCCCC(=O)O)C(=O)O)NC(=O)[C@@H](NC(=O)[C@](C)(Cc1ccccc1)NC(=O)[C@H](CCC(=O)O)NC(=O)C(C)(C)NC(=O)[C@H](CCC(N)=O)NC(=O)[C@H](C)NC(=O)[C@H](CCCCNC(=O)COCCOCCNC(=O)COCCOCCNC(=O)CC[C@H](NC(=O)CCCCCCCCCCCCC(=O)O)C(=O)O)NC(=O)[C@H](CCCN)NC(=O)[C@H](CC(=O)O)NC(=O)[C@H](CC(C)C)NC(=O)[C@](C)(CC(C)C)NC(=O)[C@@H](NC(=O)C(C)(C)NC(=O)[C@@H](NC(=O)[C@H](CC(=O)O)NC(=O)[C@H](CO)NC(=O)[C@@H](NC(=O)[C@](C)(Cc1ccccc1F)NC(=O)[C@@H](NC(=O)CNC(=O)[C@H](CCC(=O)O)NC(=O)C(C)(C)NC(=O)[C@@H](N)Cc1ccc(O)cc1)[C@@H](C)O)[C@@H](C)O)C(C)C)[C@@H](C)CC)[C@@H](C)CC)C(=O)N[C@@H](CCC(=O)O)C(=O)NCC(=O)NCC(=O)N1CCC[C@H]1C(=O)N[C@@H](CO)C(=O)N[C@@H](CO)C(=O)NCC(=O)N[C@@H](C)C(=O)N1CCC[C@H]1C(=O)N1CCC[C@H]1C(=O)N1CCC[C@H]1C(=O)N[C@@H](CO)C(N)=O` [Example 123], the Emax (in general, the greatest response seen or fitted, relative to the assay's reference) was 94.9% on hGIPR (HEK293, read-out: hGIPR Emax, % ± SEM, percent of maximal response to GIP(1-42)NH2, 0.1% bovine casein, arithmetic mean) and 96.3% at hGLP-1R (HEK293, read-out: hGLP-1R Emax, % ± SEM, percent of maximal response to GLP-1(7-36)NH2, 37° C., 0.1% bovine casein, arithmetic mean). Also, the concentration for a half-maximal effect (EC50) (in general, the concentration giving half of the maximal effect) on hGLP-1R (hGLP-1R EC50, nM (SEM, n), cAMP, incubated at 37° C., 0.1% bovine casein (no human serum albumin)) is 0.508 nM; at hGCGR (hGCGR EC50, nM (SEM, n), cAMP, incubated at 37° C., 0.1% bovine casein (no human serum albumin)), above 9950 nM.
For the molecule `CC[C@H](C)[C@H](NC(=O)[C@H](CCCN)NC(=O)[C@H](CC(=O)O)NC(=O)[C@H](CC(C)C)NC(=O)[C@](C)(CC(C)C)NC(=O)[C@@H](NC(=O)[C@H](CO)NC(=O)[C@H](Cc1ccncc1)NC(=O)[C@H](CC(=O)O)NC(=O)[C@H](CO)NC(=O)[C@@H](NC(=O)[C@](C)(Cc1ccccc1F)NC(=O)[C@@H](NC(=O)CNC(=O)[C@H](CCC(=O)O)NC(=O)C(C)(C)NC(=O)[C@@H](N)Cc1ccc(O)cc1)[C@@H](C)O)[C@@H](C)O)[C@@H](C)CC)C(=O)N[C@@H](C)C(=O)N[C@@H](CCC(N)=O)C(=O)NC(C)(C)C(=O)N[C@@H](CCC(=O)O)C(=O)N[C@@H](Cc1ccccc1)C(=O)N[C@H](C(=O)N[C@@H](CCCCNC(=O)COCCOCCNC(=O)COCCOCCNC(=O)COCCOCCNC(=O)CC[C@H](NC(=O)CCCCCCCCCCCCC(=O)O)C(=O)O)C(=O)N[C@@](C)(Cc1ccc(O)cc1)C(=O)N[C@@H](CC(C)C)C(=O)N[C@H](C(=O)N[C@@H](CCCCNC(=O)COCCOCCNC(=O)COCCOCCNC(=O)COCCOCCNC(=O)CC[C@H](NC(=O)CCCCCCCCCCCCC(=O)O)C(=O)O)C(=O)NCC(=O)NCC(=O)N1CCC[C@H]1C(=O)N[C@@H](CO)C(=O)N[C@@H](CO)C(=O)NCC(=O)N[C@@H](C)C(=O)N1CCC[C@H]1C(=O)N1CCC[C@H]1C(=O)N1CCC[C@H]1C(=O)N[C@@H](CO)C(N)=O)[C@@H](C)CC)[C@@H](C)CC` [Example 226], the Emax at hGIPR (HEK293, 0.1% bovine casein and 1.0% human serum albumin, percent of maximal response to GIP(1-42)NH2, read-out: hGIPR Emax, % ± SEM) turned out to be 92.1%; at hGLP-1R (HEK293, 0.1% bovine casein and 1.0% human serum albumin, 37° C., percent of maximal response to GLP-1(7-36)NH2, read-out: hGLP-1R Emax, % ± SEM), 118%. The EC50 on hGIPR (cAMP, incubated at 37° C., 0.1% bovine casein (no human serum albumin), geometric mean, read-out: hGIPR EC50, nM (SEM, n)) was 0.0232 nM; at hGLP-1R (0.1% bovine casein and 1.0% human serum albumin, 37° C., read-out: hGLP-1R EC50, nM (SEM, n)), 11.3 nM; on hGCGR (0.1% bovine casein and 1.0% human serum albumin, 37° C., read-out: hGCGR EC50, nM (SEM, n)), above 9950 nM; at hGCGR (cAMP, incubated at 37° C., 0.1% bovine casein (no human serum albumin), read-out: hGCGR EC50, nM (SEM, n)) it was above 9950 nM.

The values above are taken from patent US20230265151A1, “GIP/GLP1 CO-AGONIST COMPOUNDS” (priority 2020, published 2023).
